Broadly, the melting point is the temperature of the solid-liquid transition.

Turning to `CC1(N2C(=O)c3cccc(N)c3C2=O)CCC(=O)NC1=O` (stereo not shown) [Example 7, 3-(3-Aminophthalimido)-3-methyl-piperidine-2,6-dione], the melting point lay within 268 to 269 °C.

For the origin of these results see patent US7459466B2, “Substituted 2-(2,6-dioxopiperidin-3-yl)-phthalimides and -1-oxoisoindolines and method of reducing TNFα levels” (Celgene Corporation, priority 1997, dated 2008).
